Source: patent publication US8541670B2, “Compositions and methods for inhibiting tumor cell growth” (priority 2007, dated 2013)
Where no end group is shown, it is not given here. red fluorescent dye = not defined here

Legend:
[1] = biological target: PAK3 (Homo sapiens, UniProt O75914); assay: Cell-based kinase assay, phosphorylation of intracellular substrate (Ser-338 cRaf)
Description: As a specific substrate, the phosphorylation level of GSK-3[…] at Ser-9 was also evaluated. […] The decrease was specific to the AKT phosphorylation site on GSK-3[…] at Ser-9, since a change in the phosphorylation level of GSK-3[…] at Tyr-216 or GSK-3[…] at Tyr-279 was not observed. Moreover, the in vivo reduction of the phosphorylation of AKT substrates was more obvious at the injection site, since a significant change in the phosphorylation of AKT substrates in the frontal cortex or cerebellum between the two hemispheres was not observed. […] To test the specificity/selectivity of ZaTa as the inhibitor of AKT1 versus the other major kinases, a series of in vitro kinase assays was performed at IC50 for AKT1 and at ten times higher concentrations. […]
Phosphorylation sites for kinases analyzed herein included Ser-235/236 S6 (a substrate for p70S6K), Tyr-207 CRKL (a substrate for Abl; Zipfel, et al. (2004) supra), Ser-241 PDK1 (a substrate for PI3K), Tyr-1022/1023 JAK1 (a substrate for JAK3; Wang, et al. (2003) supra), Ser-421 Huntingtin (a substrate for SGK; Rangone, et al. (2004) supra), Tyr-783 PLC (a substrate for TrkB; Middlemas, et al. (1994) supra), and Ser-338 cRaf (a substrate for PAK3; King, et al. (1998) supra).

[2] = biological target: AKT-PKAc complex (Mus musculus, UniProt P31750); assay: In vivo co-immunoprecipitation of AKT-PKAc complex from striatum; set-up: ZaTa could disrupt the physical complex between AKT and PKAc in vivo; from tissue; host or cells: striatum of adult C57BL/6 mouse; species or system C57BL/6 mouse; details: versus vehicle-treated hemisphere
Description: The phenotypic consequence of disrupting the AKT-PKAc complex was also determined. ZaTa peptide was injected into the striatum of one hemisphere of the brain and DMSO, as vehicle, was injected into the other brain hemisphere of an adult C57BL/6 mouse under anesthesia. The brain was removed and dissected. Equal protein amounts from each hemisphere were subjected to immunoprecipitation by an anti-AKT antibody. […] To compare PKAc protein levels in the ZaTa- and vehicle-treated brain hemisphere lysates, western blot analysis was conducted.

[3] = tested on: non-proliferating neurons in primary cortical culture; assay: TUNEL assay in primary cortical neuron culture; format: cell-based; details: 1 or 5 µM, 72-hour treatment, compared to control peptide
Description: It is now well-established that AKT protects against apoptosis through phosphorylation and inhibition of pro-apoptotic mediators such as BAD, FOXO family members and IKK-[…] (Datta, et al. (1999) Genes Dev. 13:2905-2927). […] Primary neurons were treated with DMSO, 1 µM or 5 µM of either ZaTa or the control peptide for a duration of 1, 3, 16, 24, 48 or 72 hours. The number of apoptotic cells was counted following the TUNEL assay. […] The increase in the number of apoptotic neurons following treatment with ZaTa was consistent with its potent intra-neuronal inhibition of AKT.

[4] = tested on: panel of 32 kinases (AKT2, AKT3, PKA, PKC, PI3K, SGK, PAK2, PAK3, SAPK2/p38, Abl, CaMKII, CDK1/cyclinB, CDK5/p35, CK1, CK2, CSK, GSK3, JNK1, MAPK1, p70S6K …); assay: In vitro kinase selectivity panel of 32 kinases; format: biochemical; details: at IC50 for AKT1 (0.1 μM)
Description: As a specific substrate, the phosphorylation level of GSK-3[…] at Ser-9 was also evaluated. […] The decrease was specific to the AKT phosphorylation site on GSK-3[…] at Ser-9, since a change in the phosphorylation level of GSK-3[…] at Tyr-216 or GSK-3[…] at Tyr-279 was not observed. Moreover, the in vivo reduction of the phosphorylation of AKT substrates was more obvious at the injection site, since a significant change in the phosphorylation of AKT substrates in the frontal cortex or cerebellum between the two hemispheres was not observed. […] To test the specificity/selectivity of ZaTa as the inhibitor of AKT1 versus the other major kinases, a series of in vitro kinase assays was performed at IC50 for AKT1 and at ten times higher concentrations. A panel of the following 32 kinases was first tested in vitro using the active form of each kinase and a specific substrate: AKT2, AKT3, PKA, PKC[…], PKC, PI3K[…], PI3K[…], PI3K, SGK, PAK2, PAK3, SAPK2/p38, Abl, CaMKII, CDK1/cyclinB, CDK5/p35, CK1, CK2, CSK, GSK3[…], GSK3[…], JNK1[…]1, MAPK1, p70S6K, PDGFR[…], PDGFR[…], PDK1, PKG1[…], TrkB, JAK2, JAK3, and Syk. […] However, at ten times higher concentration, ZaTa inhibited AKT2 (63%), PI3K[…] (72%), p70S6K (64%), SGK (73%), PAK3 (83%), JAK3 (79%), TrkB (84%), and Abl (42%). […]

Sequence of AKT-PKAc complex (P31750 whole entry, one chain of several): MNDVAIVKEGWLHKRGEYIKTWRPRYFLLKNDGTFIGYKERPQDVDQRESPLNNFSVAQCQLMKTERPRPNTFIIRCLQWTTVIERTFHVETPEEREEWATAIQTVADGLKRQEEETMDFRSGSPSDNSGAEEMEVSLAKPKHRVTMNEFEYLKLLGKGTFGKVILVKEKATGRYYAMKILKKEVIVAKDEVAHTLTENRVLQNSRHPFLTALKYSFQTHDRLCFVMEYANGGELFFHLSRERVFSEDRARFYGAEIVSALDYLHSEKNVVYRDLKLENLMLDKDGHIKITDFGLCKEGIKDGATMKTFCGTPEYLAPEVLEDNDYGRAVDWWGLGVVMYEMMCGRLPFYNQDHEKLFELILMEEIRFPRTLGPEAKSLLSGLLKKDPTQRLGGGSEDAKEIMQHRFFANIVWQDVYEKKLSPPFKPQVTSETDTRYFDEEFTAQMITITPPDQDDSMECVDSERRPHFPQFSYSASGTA
Sequence of PAK3 (O75914 whole entry, species assumed): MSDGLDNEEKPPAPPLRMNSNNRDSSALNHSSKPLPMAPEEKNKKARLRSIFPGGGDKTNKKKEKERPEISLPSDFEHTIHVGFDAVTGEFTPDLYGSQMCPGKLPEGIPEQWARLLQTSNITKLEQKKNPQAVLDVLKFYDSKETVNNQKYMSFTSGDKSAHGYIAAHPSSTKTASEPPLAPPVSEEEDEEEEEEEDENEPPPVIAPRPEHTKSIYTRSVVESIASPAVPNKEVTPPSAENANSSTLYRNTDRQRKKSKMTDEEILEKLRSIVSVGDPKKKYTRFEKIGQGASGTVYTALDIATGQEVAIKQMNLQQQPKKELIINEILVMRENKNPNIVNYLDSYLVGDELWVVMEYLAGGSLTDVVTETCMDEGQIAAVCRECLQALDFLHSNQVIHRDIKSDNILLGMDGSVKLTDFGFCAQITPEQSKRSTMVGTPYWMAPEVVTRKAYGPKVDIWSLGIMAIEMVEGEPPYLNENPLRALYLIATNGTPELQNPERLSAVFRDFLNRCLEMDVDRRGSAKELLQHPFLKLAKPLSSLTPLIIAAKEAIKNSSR

| Substance | inhibition of PAK3 in cells [1] | amount of PKAc in physical contact with AKT, in vivo [2] | number of TUNEL-positive cells [3] | inhibition of panel kinases [4] |
| --- | --- | --- | --- | --- |
| labeled ZaTa: ZaTa peptide labeled with a red fluorescent dye at its N-terminus ({red fluorescent dye}-AKRVKGRTWTLCGTPEY; reading uncertain) | did not cause inhibition |  |  |  |
| AKRVKGRTWTLCGTPEY [ZaTa] |  | dramatically reduced | marked dose-dependent increase | no significant inhibition |
